Measured values reported in US8143373B2, “Carbohydrate-containing pan cancer marker” (Vancouver Biotech Ltd., priority 2007, dated 2012).
Several values for one entry are separate records, joined by “and”; a condition that tells them apart may be missing. Equal entries are not always repeated. Values belong to the compound of their own block, whether it stands above or below them.

Tests used:
[1] = tested on: OC-3-VGH ovarian cancer cells tumors; assay: Tumor growth in nude mice implanted subcutaneously with cancer cells; format: in vivo; settings: for Percent (average tumor weight, negative control = 100) / Average of Tumor Weight: n=4; for Body Weight (individual mouse) / Tumor Weight (individual mouse): mice #1-4
Experimental: Groups of four nude mice were implanted subcutaneously with 2×10^6 cells in 0.2 ml per mouse at sites near the breast for a growth period of 2-3 weeks. Treatments were performed after visible apparent growth of tumors. The radioactive labeling of the mAb was at a specific radioactivity of 12.5 μCi/mg.
The mice were sacrificed on day 16 after treating with antibody, and the size of tumors in each mouse was determined by weight together with the body weight.

[2] = tested on: CA215 present in OC-3-VGH cancer cells; assay: Secondary two-step ELISA, direct binding of anti-immunoglobulin antibodies to CA215 in OC-3-VGH cancer cells; parameters: species or system human; settings: 1.125 ug/ml primary antibody; ODn = corresponding normal mouse IgG concentration
Experimental: In this case the experiment was conducted as a secondary two-step ELISA with primary antibodies incubated with sample overnight at room temperature, followed by goat antibody Anti-Mouse IgG-ALP, for 1 hour at 37° C. ODs is the OD value of sample and ODn is the OD value of corresponding normal mouse IgG concentration.

[3] = tested on: OC-3-VGH ovarian cancer cells; assay: Growth of OC-3-VGH cell cultures in vitro; format: cell-based, human; settings: addition to cell cultures of OC-3-VGH ovarian cancer cells
Experimental: Cell culture growth was also not inhibited either by human IgG or goat anti-human IgG in vitro up to a concentration of 200 μg/ml in the cell culture.

CA215 = assay: Sandwich EIA with coated RP215 forms, OC-3-VGH shed medium and HRP-labeled RP215; format: binding, human; settings: for Relative Signal Intensity in Sandwich EIA: antibody coated at 5 μg/ml, 450 nm
Experimental: Each was coated separately at 5 μg/ml overnight in microwells. The microwells were treated with concentrated cell culture shed medium of OC-3-VGH cells (to supply CA215) and then with HRP-labeled RP215 as a detection antibody. The detection antibody was incubated with each well for 60 min. at 37° C. After 30 min, TMB substrate was added for 20 min. of color development and, after stopping the reaction, the intensity determined at 450 nm in an ELISA reader. In some cases, 10 μg/ml human IgG was added to the wells, but this had no evident effect on the signal intensity.

Goat Anti-mouse IgG = assay: Binding of well-coated antibodies to detecting antibody; settings: for Relative Intensity: detecting antibody Goat Anti-mouse IgG, RP215 adjusted to 100%
Description: In row 1, the results were normalized to 100% for the interaction between RP215 and goat anti-mouse IgG. As shown in the first row, goat anti-mouse IgG bound comparatively poorly to the humanized or chimeric human forms.

Goat Anti-human IgG = assay: as above; settings: for Relative Intensity: detecting antibody Goat Anti-human IgG, hRP215 adjusted to 100%
Description: In row 2, when goat anti-human IgG is used as a detector, and humanized RP215 was set at 100%, decreased binding was shown for human IgG, and very reduced binding for the chimeric or murine RP215.

Goat Anti-human IgFc = assay: as above
Goat Anti-human IgFab = assay: as above
[4] = tested on: CA215 antigen on OC-3-VGH cancer cells; assay: Direct binding enzyme immunoassay of RP215-HRP to OC-3-VGH cancer cell-coated wells (NaIO4 treatment, goat anti-human IgG competition); settings: for Optical Density at 450 nm / percent maximum binding: RP215-HRP 10 ug/ml + normal mouse IgG 10 ug/ml
Experimental: PBS-washed OC-3-VGH cancer cells (conc. 1×10^6 cells/ml) were incubated with 100 mM NaIO4 for 30 minutes, the cells were washed with PBS containing 0.5% BSA, and then dried on microwells at 1×10^4 cells/well. The cell-coated microwells were then blocked with 0.5% BSA in PBS and direct binding enzyme immunoassays using RP215 labeled with horseradish peroxidase (RP215-HRP) were performed at 37° C. for one hour followed by extensive washes and color development with TMB substrate. For comparison wells coated with cancer cells without NaIO4 treatments served as control.

[5] = 60 mg/Kg, sacrificed day 16 after treating
[6] = high dose 10 mg/Kg (I131-labeled: + 125 μCi), day 16, 10 mg/kg, in g (unit assumed)
[7] = low dose 2 mg/Kg (I131-labeled: + 25 μCi), day 16, 2 mg/kg, in g (unit assumed)

Compound: O=P1(N(CCCl)CCCl)NCCCO1 (centres unmarked) [Cyclophosphonamide, reference compound]
Percent (average tumor weight, negative control = 100) ([1]; 60 mg/Kg, day 16): 73.2%
Average of Tumor Weight ([1]; 60 mg/Kg, day 16, in g (unit assumed)): 0.09575
Body Weight (individual mouse) [1, 5]: 21.18 (2×) and 21.42 and 23.37
Tumor Weight (individual mouse) [1, 5]: 0.098 (2×) and 0.096 and 0.091

binding to goat anti-mouse IgG (in words) (Goat Anti-mouse IgG; antibody-coated microwells): strong binding
Relative Intensity (Goat Anti-mouse IgG): 100%
binding to goat anti-human IgG (in words) (Goat Anti-human IgG; antibody-coated microwells, alkaline phosphatase-labeled goat anti-human IgG): no binding
Relative Intensity (Goat Anti-human IgG): <0.5%
Relative Intensity (Goat Anti-human IgFc): <0.5%
Relative Intensity (Goat Anti-human IgFab): <1%
Compound: RP215: monoclonal antibody (mouse IgG) to tumor-associated antigen CA215; hybridoma deposited as ATCC HB10095
ODs405/ODn405 [2]: 11.6
effect on growth of cell cultures (in words) [3]: no effect on growth
Body Weight (individual mouse) [1, 6]: 21.43 and 23.05 and 22.15 and 23.56
Tumor Weight (individual mouse) [1, 6]: 0.088 and 0.077 and 0.095 and 0.086
Percent (average tumor weight, negative control = 100) ([1]; high dose 10 mg/Kg (I131-labeled: + 125 μCi), day 16): 66.2%
Average of Tumor Weight ([1]; high dose 10 mg/Kg (I131-labeled: + 125 μCi), day 16, in g (unit assumed)): 0.0865
Body Weight (individual mouse) [1, 7]: 21.76 and 20.57 and 21.98 and 22.64
Tumor Weight (individual mouse) [1, 7]: 0.103 and 0.122 and 0.080 and 0.104
Percent (average tumor weight, negative control = 100) ([1]; low dose 2 mg/Kg (I131-labeled: + 25 μCi), day 16): 78.2%
Average of Tumor Weight ([1]; low dose 2 mg/Kg (I131-labeled: + 25 μCi), day 16, in g (unit assumed)): 0.1022
tumor growth in vivo (in words) ([1]; nude mice): successful in inhibiting tumor growth in vivo
Relative Signal Intensity in Sandwich EIA (CA215; 10 μg/ml Human IgG): 100%
Relative Signal Intensity in Sandwich EIA (CA215; No Human IgG): 100%

Compound: RP215-HRP: RP215 labeled with horseradish peroxidase
binding between RP215-HRP and cancer cell-coated wells treated with periodate (in words) ([4]; 100 mM NaIO4 for 30 minutes vs untreated cells): drastically reduced
Optical Density at 450 nm ([4]; with NaIO4 treatment): 0.797
percent maximum binding ([4]; with NaIO4 treatment): 37%
Optical Density at 450 nm ([4]; without NaIO4 treatment): 2.153
percent maximum binding ([4]; without NaIO4 treatment): 100%

binding affinity to CA215 compared with RP215 (in words) (CA215; sandwich EIA): lower binding affinity
Relative Intensity (Goat Anti-mouse IgG): ~7%
Relative Intensity (Goat Anti-human IgG): ~10%
Relative Intensity (Goat Anti-human IgFc): 45%
Relative Intensity (Goat Anti-human IgFab): 10%
Compound: chRP215: chimeric RP215 mAb with human constant regions and the murine variable regions of RP215
Relative Signal Intensity in Sandwich EIA (CA215; 10 μg/ml Human IgG): 15.4%
Relative Signal Intensity in Sandwich EIA (CA215; No Human IgG): 14.5%
